Experimental data reported in patent US20240358705A1, “COMPOSITIONS AND METHODS FOR TREATMENT OF CANCER” (Board of Supervisors of Louisiana State University and …, priority 2021, published 2024).
“Also recorded” adds a separate entry of the source. {AltR1} = IDT Alt-R proprietary 5' end modification; {AltR2} = IDT Alt-R proprietary 3' end modification

Key:
pmel-I CD8 T cells = experiment: Cytotoxicity of CRISPR-Cas9 GPR84 knockout pmel-I CD8 T cells; type: cell-based, mouse
Description: CRISPR-Cas9 GPR84 pmel-I T cells were prepared following the CRISPR-Cas9 method. Non-target EL4 cells (CFSE low—0.1 μM) and target EL4gp100 cells (CFSE high—[…]) were prepared. EL4gp100 CFSE high cells were prepared by pulsing EL4 with […] gp100 (Anaspec #AS62589) and incubating for 30 minutes at 37° C., 5% C02. Cells were subsequently washed, pelleted, resuspended at 1×10^6 cells/ml, and mixed at 1:1 ratio. 1×10^5 of the mixed cells were plated into a 96-well round-bottom plate. In technical duplicate or triplicate GPR84 knockout or no target control CD8 […] T cells were added to wells to create an effector to target ratio of 0.5:1, 0.25:1, and 0.12:1 and incubated for 24 hours at 37° C., 5% C02. Cells were then harvested, stained with anti-CD8 to remove the T cell population and the percent specific lysis was captured by flow cytometry.
Isolated pmel-I splenocytes were plated at a density of 2.5×10^6 in 1 ml of cRPMI-1640 containing 300 ng/ml anti-mouse CD3 (Biolegend #100340, clone 145-2C11), 500 IU/ml IL-2, 5 ng/ml IL-7 (PreproTech #217-17), and 100 ng/ml IL-15 (PreproTech #210-15) into a 24-well plate. Cells were incubated at 37° C., 5% CO2 for 48 hours. Cells were then pelleted and suspended to a concentration of 4×10^5 cells/ml in fresh cRPMI-1640 with 500 IU/ml IL-2 and cultured for an additional 24 hours at 37° C., 5% CO2. Before electroporation, T media was prepared consisting of modified cRPMI-1640 (20% FBS, 500 IU/ml IL-2, and no antibiotics). 615 μl of fresh T media was pipetted into 24-well plates. Preparation of CRISPR-Cas9 complexes and electroporation of primary T cells were conducted following the Alt-R CRISPR-Cas9 system using the Neon Transfection System instructions provided by Integrated DNA Technologies (IDT Coralville, IO). The program used for electroporation consisted of 1600V, 10 ms, and three pulses. […] Cells were counted 48 hours after electroporation and cRPMI-1640 supplemented with 500 IU/ml IL-2 was added to adjust the cell density to 4×10^5 cells/ml. […]

[1] = tested on: human polymorphonuclear leukocytes and macrophages; details: cited from earlier work
CD8 OT-I T cells = experiment: In vivo vaccination antigen titration; set-up: species or system mouse; OT-I proliferation response, lymph node: dose or concentration left out as unconfirmed
Description: C57BL/6N mice were first administered 200 μg cyclophosphamide dissolved in PBS by intraperitoneal injection to induce minor lymphodepletion. 48 hours after lymphodepletion, mice were intravenously adoptively transferred 2×10^6 CFSE labeled CD8 OT-I T cells. Five hours later, mice were vaccinated by 100 μl subcutaneous injection with reducing doses of […] (SEQ ID NO: 1) (Bachem #4033142.0001) in incomplete Freund's adjuvant (IFA) (Thermo #77145). Study ended 96 hours post-vaccination and lymph node tissue was isolated for analysis. Single-cell suspensions of lymph node were stained following the immune profiling by flow cytometry method. Vaccine effectiveness was determined by the percent proliferation of adoptively transferred cells. The sub-optimal vaccine dose was then selected as the amount of antigen that elicited a 50% response.

[2] = model of diet-induced obesity; cited from earlier work
[3] = cited from earlier work
[4] = phase II study; cited from earlier work
[5] = tested on: macrophages, fibroblasts, myofibroblasts, and epithelial cells; details: cited from earlier work

Molecule: crGPR84: CRISPR-Cas9 guide RNA (SEQ ID NO: 2) used to knock out GPR84 in pmel-I CD8 T cells (guide CUCGAGCACUGGACCAAUACGUUUUAGAGCUAUGCU; RNA, 5' {AltR1}, 3' {AltR2}, backbone not given here)
- specific lysis of gp100 pulsed EL4 target cells (pmel-I CD8 T cells; 0.12:1 effector to target ratio, crNTC 38.6%): 52.3%
- specific lysis of gp100 pulsed EL4 target cells (pmel-I CD8 T cells; 0.25:1 effector to target ratio, no target control 55.9%): 72.5%
- cytotoxicity vs no target control (pmel-I CD8 T cells; 0.5:1 effector to target ratio): did not find a significant difference

Molecule: CCCCCCCCNc1cc(=O)[nH]c(=O)[nH]1 [6-OAU]
- chemotaxis [1]: increase chemotaxis

Molecule: SIINFEKL
- OT-I proliferation response, predicted (CD8 OT-I T cells; 0.07 g SIINFEKL, selected sub-optimal vaccine dose): 50%
- OT-I proliferation, lymph node (CD8 OT-I T cells; first five concentrations of SIINFEKL in IFA, 96 hours): ~100%
- OT-I proliferation response, lymph node (CD8 OT-I T cells; in IFA): below 50%

Molecule: CCCCCc1cc(CCCCC)cc(CC(=O)O)c1 [PBI-4547]
- metabolic dysregulation (hyperglycemia and hypertriglyceridemia) [2]: improved metabolic dysregulation

Molecule: CCCCCc1cccc(CC(=O)O)c1 [PBI-4050]
- forced vital capacity ([3]; combination therapy with pirfenidone): worsened forced vital capacity
- inflammatory and fibrotic biomarkers ([3]; patients treated with PBI-4050): significant increase in IL-9, IL-7, MIP-Ibeta; also recorded: increase in IL-9, IL-7, MIP-1beta
- tolerability ([3]; single agent and in combination with nintedanib or pirfenidone, phase II): well tolerated
- ability to increase forced vital capacity ([3]; single agent and in combination with nintedanib): unsuccessful
- HbA1c [4]: can reduce HbAlc
- fibrotic capacity of cells [5]: reduced fibrotic capacity
- glycemic control [5]: improved glycemic control
